Results: US7927821B2, “Methods of screening for compounds which bind G protein-coupled receptors” (Takeda Pharmaceutical Company Limited, priority 2004, dated 2011)

How the values were obtained:
[1] = tested on: pAKKO-111H-transfected cells (control); experiment: SRE-luciferase reporter assay in pAKKO-111H-transfected HeLa cells for control (no receptor); conditions: 2 μM
TGR25 = TGR25 (Homo sapiens, UniProt Q86Y34); experiment: SRE-luciferase reporter assay in HeLa cells transiently expressing TGR25; format: cell-based; conditions: for luciferase activity in the TGR25-expressed cells (in words): 20 μM
Chain of TGR25 (Q86Y34 21-549): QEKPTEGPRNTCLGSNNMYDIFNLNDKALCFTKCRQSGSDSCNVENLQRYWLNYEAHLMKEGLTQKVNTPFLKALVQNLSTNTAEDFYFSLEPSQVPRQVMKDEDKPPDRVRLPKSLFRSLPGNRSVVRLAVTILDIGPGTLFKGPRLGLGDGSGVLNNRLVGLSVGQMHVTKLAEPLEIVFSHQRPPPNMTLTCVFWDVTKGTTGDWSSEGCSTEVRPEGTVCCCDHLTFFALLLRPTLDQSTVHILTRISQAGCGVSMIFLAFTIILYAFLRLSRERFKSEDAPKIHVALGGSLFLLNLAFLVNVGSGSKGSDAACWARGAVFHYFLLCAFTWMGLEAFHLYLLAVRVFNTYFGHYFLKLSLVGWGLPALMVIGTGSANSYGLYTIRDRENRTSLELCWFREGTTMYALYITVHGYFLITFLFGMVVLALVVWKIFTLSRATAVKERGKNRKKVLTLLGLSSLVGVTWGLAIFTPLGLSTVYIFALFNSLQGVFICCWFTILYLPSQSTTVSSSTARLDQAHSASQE

HL-60 = experiment: Differentiation of HL-60 cell line into neutrophil-like cells (CD11b/Mac-1, flow cytometry); format: cell-based, human; conditions: co-presence of 1.25% DMSO and AM251 (10 μM), 4 days
From the text: Human leukocyte cell line (human acute promyelocytic leukemia cell-derived) HL-60 is known to differentiate into neutrophil-like cells by treatment with DMSO (dimethyl sulfoxide) (Blood, 70, 1233-1244 (1987)). Gene expression analysis based on EXAMPLE 3 confirmed the expression of the TGR25 in the cell line. Accordingly, the action of AM251 as an agonist of the TGR25 for differentiation of the cells was examined.
After HL-60 cells in the growth phase were suspended in 10% fetal calf serum-containing RPMI 1640 medium, the cells were plated on a 12-well tissue culture plate (Becton Dickinson Japan) in 5×10^4 cells/well. […] Degree of cell differentiation was analyzed using a fluorescence-labeled antibody (PE-anti-human CD11b/Mac-1, Becton Dickinson Japan) on a flow cytometry (BD FACSVantage™, Becton Dickinson Japan), in terms of the expression level of a differentiation marker or cell surface antigen CD11b/Mac-1 as an indicator.

| SMILES | luciferase activity in the pAKKO-111H-transfected cells for control (in words) [1] | luciferase activity in the TGR25 expression cells (in words) (TGR25; 2 μM) | Increased luciferase activity (cps) in the TGR25 expression cells by AM251: TGR25 (TGR25; AM251 2 μM, 4 hours, HeLa cells, 0 μM gave 7527) [cps] | differentiation of HL-60 into neutrophil-like cells (HL-60) | expression level of CD11b/Mac-1 (differentiation marker) (HL-60; versus DMSO alone) | luciferase activity in the TGR25-expressed cells (in words) (TGR25) | Increase of Luciferase Activity in TGR25-Expressed Cells by AM281 (cps): TGR25 (TGR25; AM281 20 μM, 4 hours, HeLa cells, 0 μM gave 6113) [cps] | Increase of Luciferase Activity in TGR25-Expressed Cells by DH97 (cps): TGR25 (TGR25; DH97 20 μM, 4 hours, HeLa cells, 0 μM gave 2642) [cps] |
| --- | --- | --- | --- | --- | --- | --- | --- | --- |
| Cc1c(C(=O)NN2CCCCC2)nn(-c2ccc(Cl)cc2Cl)c1-c1ccc(I)cc1 [AM251, 1-(2,4-dichlorophenyl)-5-(4-iodophenyl)-4-methyl-N-piperidin-1-yl-1H-pyrazole-3-carboxamide] | any significant increase in the activity was not detected | increased luciferase activity was detected | 17897 | acts promotively | further increased |  |  |  |
| Cc1c(C(=O)NN2CCOCC2)nn(-c2ccc(Cl)cc2Cl)c1-c1ccc(I)cc1 [AM281, 1-(2,4-dichlorophenyl)-5-(4-iodophenyl)-4-methyl-N-morpholin-4-yl-1H-pyrazole-3-carboxamide] |  |  |  |  |  | the luciferase activity increased | 9279 |  |
| CCCCC(=O)NCCc1c(Cc2ccccc2)[nH]c2ccccc12 [DH97, N-[2-(2-benzyl-1H-indol-3-yl)ethyl]pentanamide] |  |  |  |  |  | the luciferase activity increased |  | 5674 |
